# Measurements reported in US20250304587A1, “WEE1 INHIBITOR, PREPARATION THEREFOR AND USE THEREOF” (JIANGSU TASLY DIYI PHARMACEUTICAL CO., LTD., priority 2022, published 2025).
# Like-named read-outs stand apart in the source and are kept apart here.
# Experiments:
# [1] = Metabolic stability in liver microsomes, rat; format: in vitro ADME
# Description: (§1) Microsomes were taken out from the −80° C. refrigerator, rapidly melted in a 37° C. water bath and placed on ice until ready to use. The test article was diluted with DMSO to prepare a 10 mM stock solution, and then diluted with acetonitrile to a 0.5 mM secondary stock solution. […] NADPH was diluted with Buffer C to a working solution of 6 mM for the starter solution. An acetonitrile solution containing an internal standard was prepared as the precipitant, and Verapamil-HCl was chosen as the internal standard at a concentration of 4 ng/ml. […] A separate plate with pointed bottom wells, noted as a precipitation plate, was added with 135 μL precipitant per well; 0 h samples were transferred to the plate after 10 min incubation and 15 μL of starter solution was added; the plate was placed on ice before centrifugation. The diluted starter solution was added in sufficient quantity to the dispensing plate to facilitate the multichannel pipette aspiration operation. The reaction was carried out on a warm incubation shaker and 15 μL of starter solution/sample is added to the plate using a multichannel pipette. The reaction was mixed with a slight shake to initiate the reaction, which was accurately timed and recorded using a timer; After the reaction time had elapsed, all the solution in the plate was aspirated using the multichannel pipette and added to the precipitation plate to terminate the reaction at that point in time. After all reactions had been terminated, the plates were shaken for ten minutes on a plate shaker at 600 rpm to precipitate the protein. The plate was centrifuged at 4° C. for 15 minutes at maximum rpm. 80 μL of supernatant was taken, 320 μL of pure water was added and mixed for LC-MS analysis.
# [2] = Metabolic stability in liver microsomes, dog; format: in vitro ADME
# Description: as §1
# [3] = Metabolic stability in liver microsomes, monkey; format: in vitro ADME
# Description: as §1
# [4] = Saturated solubility in buffer at different pH; format: physicochemical; settings: for solubility at 24 h: buffer solution, aqueous buffer, thermodynamic from solid
# Description: The compound was placed in a buffer solution and shaken at constant temperature for 24 h. […] Chromatographic conditions: C18 column, mobile phase A: 0.02 M potassium dihydrogen phosphate:acetonitrile=90:10, mobile phase B: acetonitrile; V: 1.0 ml/min, T: 35° C., λ: 210 nm.
# [5] = Pharmacokinetics on single dose in mice (iv and po); format: in vivo, male ICR mice
# Source text: The present experiment aimed to study the pharmacokinetics in the plasma of male ICR mice after the administration. The present experiment aimed to obtain the pharmacokinetic profile of the subject compounds in ICR mice (both intravenous and oral) [table] • Species: SPF grade male ICR mice • Body weight/weekly age: about 30 g • Amount: 6 • Experimental animal source: Charles River • Intravenous solvents: 5% DMSO—10% Solutol-85% HPBCD (20%, WN) • “Gavage solvent/dosage form: 5% DMSO—10% Solutol-85% HPBCD (20%, WN)” • Intravenous: 1 mg/kg in a volume of 5 mL/kg • Gavage: 10 mg/kg in a volume of 10 mL/kg • Ultrasound for 5 min before administration • Intravenous: 0.2 mg/mL • Gavage: 1 mg/mL • Fast overnight before administration and feed four hours after administration. […] The blood samples were stored in a refrigerator at or below −20 C for LC-MS/MS analysis. The samples were detected for drug concentration at each time point by LC-MS/MS. Pharmacokinetic parameters terminal elimination half-life (t½), area under the curve (AUC), apparent volume of distribution (Vd), clearance (CL), mean residence time (MRT), and Cmax were calculated using the non-compailinental model of Phoenix WinNonlin 5.2. Bioavailability (F %) was directly from serum concentration results. Mean standard deviation (X±SD) was used for blood concentration and pharmacokinetic parameters, etc. Specific testing and analytical methods were specified in the form of protocol revisions.
# [6] = Pharmacokinetics on single dose in rats (iv and po); format: in vivo, male SD rats
# Description: Pharmacokinetic properties of the drug in male SD rats were evaluated by the same method with in vivo pharmacokinetic study with mice.
# [7] = Pharmacokinetics on single dose in Beagle dogs (iv and po); format: in vivo, male Beagle dogs
# Description: Pharmacokinetic properties of the drug in male Beagle dogs were evaluated by the same method with in vivo pharmacokinetic study with mice. The basic information is as follows: • Beagle: weighing 8-11 kg, purchased from Jiangsu Marshall Biotechnology Co., Ltd. • Dosage: 2 mg/kg (intravenous injection); 10 mg/kg (oral) • Solvent: 5% DMSO+5% Solutol+90% (20% HP-β-CD in Saline)
# [8] = test system: human pancreatic cancer BxPC3 cells xenograft; experiment: Anti-tumor efficacy, BxPC3 xenograft (CDX model); format: in vivo, female BALB/c nude mice; settings: after 40 days
# Description: Experimental method: BALB/c nude mice (provided by Charles River) were selected, 7-8 weeks old and weighing 19-22 g.
# The prepared and cultured BxPC3 cells were counted, and 1×10^7 BxPC3 cells were mixed in 0.1 mL PBS solution and inoculated subcutaneously on the right wing of mice. When the cells became tumors and the average tumor volume reached 190 mm^3, they began to be grouped and administered. […] The experimental indicator was to check whether the tumor growth was inhibited. The formula for calculating the tumor volume was: V=0.5a×b^2, where a and b respectively indicated the long and short diameters of the tumor.
# The anti-tumor effects of the compounds were evaluated by TGI (%).
# [9] = rat, in vivo; for Death Numbers / Death Rate: SD, 14 days
# [10] = male, mouse, plasma, ICR mice, iv 1 mg/kg
# [11] = male, mouse, plasma, ICR mice, po 10 mg/kg
# [12] = male, rat, plasma, SD rats, iv 1 mg/kg
# [13] = male, rat, plasma, SD rats, po 10 mg/kg
compound,measurement,setting,value
"C=CCn1c(=O)c2cnc(Nc3ccc(N4CCN(C)CC4)cc3)nc2n1-c1cccc(C(C)(C)O)n1 [AZD1775, reference compound]",half-life at 1 µM,[1]; read-out: T1/2 liver microsomes Rat,0.635 h
same,half-life at 1 µM,[2]; read-out: T1/2 liver microsomes Dog,0.179 h
same,half-life at 1 µM,[3]; read-out: T1/2 liver microsomes Monkey,0.335 h
same,solubility at 24 h,"[4]; pH 5.0, 37° C., read-out: Saturated solubility pH 5.0",410 µg/mL
same,solubility at 24 h,"[4]; pH 6.5, 37° C., read-out: Saturated solubility pH 6.5",50 µg/mL
same,solubility at 24 h,"[4]; pH 7.4, 37° C., read-out: Saturated solubility pH 7.4",20 µg/mL
same,Cl,"[5]; ICR mice, po 10 mg/kg",446 mL/min/kg
same,F,"[5]; ICR mice, po 10 mg/kg",32%
same,AUC(0-t),[5]; [10],116 ng·h/mL
same,clearance,[5]; [10],134 mL/min/kg
same,half-life,[5]; [10],0.5 h
same,C0,"[5]; male, mouse, plasma, ICR mice, iv 1 mg/kg, read-out: C0",250 ng/mL
same,AUC(0-t),[5]; [11],396 ng·h/mL
same,half-life,[5]; [11],0.87 h
same,Cmax,"[5]; male, mouse, plasma, ICR mice, po 10 mg/kg, read-out: Cmax",398 ng/mL
same,Tmax,"[5]; male, mouse, plasma, ICR mice, po 10 mg/kg, read-out: Tmax",0.42 h
same,Cl,"[6]; SD rats, po 10 mg/kg",170.8 mL/min/kg
same,F,"[6]; SD rats, po 10 mg/kg",121.8%
same,AUC(0-t),[6]; [12],72.3 ng·h/mL
same,clearance,[6]; [12],148 mL/min/kg
same,half-life,[6]; [12],0.91 h
same,C0,"[6]; male, rat, plasma, SD rats, iv 1 mg/kg, read-out: C0",101 ng/mL
same,AUC(0-t),[6]; [13],881 ng·h/mL
same,half-life,[6]; [13],2.68 h
same,Cmax,"[6]; male, rat, plasma, SD rats, po 10 mg/kg, read-out: Cmax",188 ng/mL
same,Vss,[7]; iv 2 mg/kg,3.01 L/kg
same,AUC(0-t),"[7]; male, dog, plasma, iv 2 mg/kg",877 ng·h/mL
same,clearance,"[7]; male, dog, plasma, iv 2 mg/kg",44 mL/min/kg
same,half-life,"[7]; male, dog, plasma, iv 2 mg/kg",1.03 h
same,AUC(0-t),"[7]; male, dog, plasma, po 10 mg/kg",1620 ng·h/mL
same,half-life,"[7]; male, dog, plasma, po 10 mg/kg",2.34 h
same,Cmax,"[7]; male, dog, plasma, po 10 mg/kg, read-out: Cmax",405 ng/mL
same,Tmax,"[7]; male, dog, plasma, po 10 mg/kg, read-out: Tmax",1.67 h
same,F,[7]; po 10 mg/kg,37.9%
same,TGI,[8]; 60 mg/kg qd,57.6%
same,Death Numbers,"[9]; female, 100 mg/kg",0
same,Death Rate,"[9]; female, 100 mg/kg",0%
same,Death Numbers,"[9]; female, 200 mg/kg",0
same,Death Rate,"[9]; female, 200 mg/kg",0%
same,Death Numbers,"[9]; female, 300 mg/kg",2
same,Death Rate,"[9]; female, 300 mg/kg",67%
same,Death Numbers,"[9]; male, 100 mg/kg",0
same,Death Rate,"[9]; male, 100 mg/kg",0%
same,Death Numbers,"[9]; male, 200 mg/kg",0
same,Death Rate,"[9]; male, 200 mg/kg",0%
same,Death Numbers,"[9]; male, 300 mg/kg",0
same,Death Rate,"[9]; male, 300 mg/kg",0%
[2H][C@]1(O)c2nc(-n3c4nc(Nc5ccc(N6CCC7(CCN(C)CC7)CC6)cc5)ncc4c(=O)n3CC=C)ccc2CCC12CC2 [Compound 37b],T1/2 liver microsomes Rat,[1],>2 h
same,T1/2 liver microsomes Dog,[2],1.16 h
same,T1/2 liver microsomes Monkey,[3],0.633 h
same,Saturated solubility pH 5.0,[4]; pH 5,0.37 mg/mL
same,Saturated solubility pH 6.5,[4]; pH 6.5,0.37 mg/mL
same,Saturated solubility pH 7.4,[4]; pH 7.4,0.62 mg/mL
same,AUClast,"[5]; ICR mice, iv 1 mg/kg",558 ng·h/mL
same,C0,"[5]; ICR mice, iv 1 mg/kg",186 ng/mL
same,Cl,"[5]; ICR mice, iv 1 mg/kg",26.3 mL/min/kg
same,T1/2,"[5]; ICR mice, iv 1 mg/kg",2.99 h
same,AUClast,"[5]; ICR mice, po 10 mg/kg",1607 ng·h/mL
same,Cl,"[5]; ICR mice, po 10 mg/kg",74 mL/min/kg
same,Cmax,"[5]; ICR mice, po 10 mg/kg",307 ng/mL
same,F,"[5]; ICR mice, po 10 mg/kg",29%
same,Tmax,"[5]; ICR mice, po 10 mg/kg",2.67 h
same,Pharmacokinetic properties (in words),"[5]; mice, compared with AZD1775",better pharmacokinetic properties than the control compound AZD1775
same,AUClast,"[6]; SD rats, iv 1 mg/kg",471 ng·h/mL
same,C0,"[6]; SD rats, iv 1 mg/kg",313.2 ng/mL
same,T1/2,"[6]; SD rats, iv 1 mg/kg",3.97 h
same,AUClast,"[6]; SD rats, po 10 mg/kg",1131 ng·h/mL
same,Cmax,"[6]; SD rats, po 10 mg/kg",188.6 ng/mL
same,F,"[6]; SD rats, po 10 mg/kg",24.01%
same,Tmax,"[6]; SD rats, po 10 mg/kg",2.67 h
same,Drug exposure (in words),"[6]; rats, compared with AZD1775",obvious advantages in drug exposure
same,AUClast,[7]; iv 2 mg/kg,1602 ng·h/mL
same,Cl,[7]; iv 2 mg/kg,21.8 mL/min/kg
same,T1/2,[7]; iv 2 mg/kg,5.05 h
same,Vss,[7]; iv 2 mg/kg,5.71 L/kg
same,AUClast,[7]; po 10 mg/kg,1816 ng·h/mL
same,Cmax,[7]; po 10 mg/kg,171 ng/mL
same,F,[7]; po 10 mg/kg,22.8%
same,T1/2,[7]; po 10 mg/kg,4.69 h
same,Tmax,[7]; po 10 mg/kg,2.00 h
same,TGI,[8]; 30 mg/kg qd,70.1%
same,TGI,[8]; 60 mg/kg qd,72.4%
same,TGI,[8]; 120 mg/kg qd,100.9%
same,Maximum tolerated dose (in words),[9],higher than that of the control compound AZD1775
